These results are taken from patent publication US11939320B2, “Modulators of the integrated stress pathway” (Calico Life Sciences LLC, priority 2017, dated 2024).

The test system of this assay is HEK293T cells carrying the ATF4 luciferase reporter. Description: ATF4-Luc assay (in vitro model of VWMD). The format is cell-based. The conditions noted are these: Homo sapiens, HEK-293T; HEK293T cells with ATF4 5'-UTR firefly luciferase reporter; 1 μg/mL tunicamycin; 7 hours; One Glo luminescence. The protocol: In order to test exemplary compounds of the invention in a cellular context, a stable VWMD cell line was first constructed. The ATF4 reporter was prepared by fusing the human full-length ATF4 5′-UTR (NCBI Accession No. BC022088.2) in front of the firefly luciferase (FLuc) coding sequence lacking the initiator methionine as described in Sidrauski et al (eLife 2013). The construct was used to produce recombinant retroviruses using standard methods and the resulting viral supernatant was used to transduce HEK293T cells, which were then subsequently selected with puromycin to generate a stable cell line.
HEK293T cells carrying the ATF4 luciferase reporter were plated on polylysine coated 384-well plates (Greiner Bio-one) at 30,000 cells per well. Cells were treated the next day with 1 μg/mL tunicamycin and 200 nM of a compound of Formula (I) for 7 hours. Luminescence was measured using One Glo (Promega) as specified by the manufacturer. Cells were maintained in DMEM with L-glutamine supplemented with 10% heat-inactivated FBS (Gibco) and Antibiotic-Antimycotic solution (Gibco).
Table 2 below summarizes the EC50 data obtained using the ATF4-Luc assay for exemplary compounds of the invention.
In general terms: Reporter assays use an easily measured gene product as a stand-in for the process of interest.
In the case of `O=C(N[C@@H]1CC[C@@H](C(=O)NCc2ccc(C(F)(F)F)cn2)OC1)C1CNc2cc(Cl)ccc2O1` (mixture of isomers) [Compound 165, 6-chloro-N-[(3R,6S)-6-({[5-(trifluoromethyl)pyridin-2-yl]methyl}carbamoyl)oxan-3-yl]-3,4-dihydro-2H-1,4-benzoxazine-2-carboxamide], the EC50 was 50 to 250 nM.

`O=C(NCc1ccc(C(F)(F)F)cn1)[C@@H]1CC[C@@H](NC(=O)[C@@H]2CNc3cc(Cl)ccc3O2)CO1` (single isomer, unassigned) [Compound 161]: the EC50 lay in the range of 250 to 500 nM. Then `O=C(COc1ccc(Cl)c(F)c1)N[C@H]1CC[C@@H](C(=O)NCc2ccc(C(F)(F)F)cn2)OC1` (single isomer, unassigned) [Compound 162], with > 2000 nM; and `O=C(COc1ccc(Cl)c(F)c1)N[C@@H]1CC[C@H](C(=O)NCc2ccc(C(F)(F)F)cn2)OC1` (single isomer, unassigned) [Compound 163], with > 2000 nM; and `O=C(NCc1ccc(C(F)(F)F)cn1)[C@@H]1CC[C@@H](NC(=O)[C@H]2CNc3cc(Cl)ccc3O2)CO1` (single isomer, unassigned) [Compound 164], with 50 to 250 nM. `O=C(COc1ccc(Cl)c(Cl)c1)N[C@H]1CC[C@H](C(=O)NCc2ccc(C(F)(F)F)nc2)CC1` [Compound 100, (1r,4r)-4-[2-(3,4-dichlorophenoxy)acetamido]-N-{[6-(trifluoromethyl)pyridin-3-yl]methyl}cyclohexane-1-carboxamide]: the EC50 fell in the range of 10 to 50 nM. To `Cc1ccc(CNC(=O)[C@H]2CC[C@H](NC(=O)COc3ccc(Cl)c(Cl)c3)CC2)nc1` [Compound 101, (1r,4r)-4-[2-(3,4-dichlorophenoxy)acetamido]-N-[(5-methylpyridin-2-yl)methyl]cyclohexane-1-carboxamide] belongs > 2000 nM; to `O=C(COc1ccc(Cl)c(Cl)c1)N[C@H]1CC[C@H](C(=O)Nc2ccc(OC(F)F)nc2)CC1` [Compound 102, (1r,4r)-4-[2-(3,4-dichlorophenoxy)acetamido]-N-[6-(difluoromethoxy)pyridin-3-yl]cyclohexane-1-carboxamide], < 10 nM; to `O=C(COc1ccc(Cl)c(Cl)c1)N[C@H]1CC[C@H](C(=O)Nc2ccc(OCC(F)(F)F)nc2)CC1` [Compound 103, (1r,4r)-4-[2-(3,4-dichlorophenoxy)acetamido]-N-[6-(2,2,2-trifluoroethoxy)pyridin-3-yl]cyclohexane-1-carboxamide], > 2000 nM. To `O=C(COc1ccc(Cl)c(Cl)c1)N[C@H]1CC[C@H](C(=O)NCc2ccc(OC(F)F)cc2)CC1` [Compound 104, (1r,4r)-4-[2-(3,4-dichlorophenoxy)acetamido]-N-{[4-(difluoromethoxy)phenyl]methyl}cyclohexane-1-carboxamide] belongs 50 to 250 nM. For the compound `COc1ccc(CNC(=O)[C@H]2CC[C@H](NC(=O)COc3ccc(Cl)c(Cl)c3)CC2)cn1` [Compound 105, (1r,4r)-4-[2-(3,4-dichlorophenoxy)acetamido]-N-[(6-methoxypyridin-3-yl)methyl]cyclohexane-1-carboxamide], the EC50 was > 2000 nM. To `CN(Cc1cccnc1)C(=O)[C@H]1CC[C@H](NC(=O)COc2ccc(Cl)c(Cl)c2)CC1` [Compound 106, (1r,4r)-4-[2-(3,4-dichlorophenoxy)acetamido]-N-methyl-N-[(pyridin-3-yl)methyl]cyclohexane-1-carboxamide] belongs > 2000 nM. To `O=C(COc1ccc(Cl)c(F)c1)N[C@H]1CC[C@H](C(=O)NCc2ccc(OC(F)F)cn2)CC1` [Compound 107, (1r,4r)-4-[2-(4-chloro-3-fluorophenoxy)acetamido]-N-{[5-(difluoromethoxy)pyridin-2-yl]methyl}cyclohexane-1-carboxamide] belongs 10 to 50 nM; to `Cc1cncc(CNC(=O)[C@H]2CC[C@H](NC(=O)COc3ccc(Cl)c(F)c3)CC2)c1` [Compound 108, (1r,4r)-4-[2-(4-chloro-3-fluorophenoxy)acetamido]-N-[(5-methylpyridin-3-yl)methyl]cyclohexane-1-carboxamide], > 2000 nM; to `O=C(COc1ccc(Cl)c(F)c1)N[C@H]1CC[C@H](C(=O)Nc2ccc(OC(F)F)nc2)CC1` [Compound 109, (1r,4r)-4-[2-(4-chloro-3-fluorophenoxy)acetamido]-N-[6-(difluoromethoxy)pyridin-3-yl]cyclohexane-1-carboxamide], < 10 nM. As for `O=C(COc1ccc(Cl)c(F)c1)N[C@H]1CC[C@H](C(=O)Nc2ccc(OC(F)(F)F)cn2)CC1` [Compound 110, (1r,4r)-4-[2-(4-chloro-3-fluorophenoxy)acetamido]-N-[5-(trifluoromethoxy)pyridin-2-yl]cyclohexane-1-carboxamide], the EC50 lay in the range of 10 to 50 nM. `O=C(COc1ccc(Cl)c(F)c1)N[C@H]1CC[C@H](C(=O)Nc2ccc(Cl)c(F)c2)CC1` [Compound 111, (1r,4r)-4-[2-(4-chloro-3-fluorophenoxy)acetamido]-N-(4-chloro-3-fluorophenyl)cyclohexane-1-carboxamide]: the EC50 is 10 to 50 nM.

Consider `O=C(COc1ccc(Cl)c(F)c1)N[C@H]1CC[C@H](C(=O)NCc2ccc(Cl)c(F)c2)CC1` [Compound 112, (1r,4r)-4-[2-(4-chloro-3-fluorophenoxy)acetamido]-N-[(4-chloro-3-fluorophenyl)methyl]cyclohexane-1-carboxamide], for which the EC50 was < 10 nM. To `O=C(COc1ccc(Cl)c(F)c1)N[C@H]1CC[C@H](C(=O)N2CCC[C@@H]2c2cc(F)ccc2F)CC1` [Compound 113, 2-(4-chloro-3-fluorophenoxy)-N-{(1R,4r)-4-[(2R)-2-(2,5-difluorophenyl)pyrrolidine-1-carbonyl]cyclohexyl}acetamide] belongs > 2000 nM; to `O=C(COc1ccc(Cl)c(F)c1)N[C@H]1CC[C@H](C(=O)N2CCC[C@H]2c2cc(F)ccc2F)CC1` [Compound 114, 2-(4-chloro-3-fluorophenoxy)-N-{(1S,4r)-4-[(2S)-2-(2,5-difluorophenyl)pyrrolidine-1-carbonyl]cyclohexyl}acetamide], > 2000 nM. To `O=C(COc1ccc(Cl)c(F)c1)N[C@H]1CC[C@H](C(=O)Nc2ccc(OCC(F)(F)F)nc2)CC1` [Compound 115, (1r,4r)-4-[2-(4-chloro-3-fluorophenoxy)acetamido]-N-[6-(2,2,2-trifluoroethoxy)pyridin-3-yl]cyclohexane-1-carboxamide] belongs 500 to 2000 nM; to `O=C(COc1ccc(Cl)c(F)c1)N[C@H]1CC[C@H](C(=O)NCc2ccc(OC(F)F)nc2)CC1` [Compound 116, (1r,4r)-4-[2-(4-chloro-3-fluorophenoxy)acetamido]-N-{[6-(difluoromethoxy)pyridin-3-yl]methyl}cyclohexane-1-carboxamide], 50 to 250 nM. To `O=C(COc1ccc(Cl)c(F)c1)N[C@H]1CC[C@H](C(=O)NCc2ncco2)CC1` [Compound 117, (1r,4r)-4-[2-(4-chloro-3-fluorophenoxy)acetamido]-N-[(1,3-oxazol-2-yl)methyl]cyclohexane-1-carboxamide] belongs > 2000 nM; to `O=C(COc1ccc(Cl)c(F)c1)N[C@H]1CC[C@H](C(=O)NCc2cnco2)CC1` [Compound 118, (1r,4r)-4-[2-(4-chloro-3-fluorophenoxy)acetamido]-N-[(1,3-oxazol-5-yl)methyl]cyclohexane-1-carboxamide], > 2000 nM.

What is called EC50 is the concentration needed to bring the measured effect to its halfway point.
